Experimental data taken from patent US20110065663A1, “ANTI-CANCER COMBINATION THERAPY” (Katholieke Universiteit Leuven, K.U. Leuven R&D, priority 2008, published 2011).
Like-named read-outs stand apart in the source and are kept apart here.

Assays:
[1] = Conversion of nucleosides in the medium of uninfected MCF-7 cells; type: biochemical, human; settings: even after 24 hours of incubation; data not shown
Experimental: The TP activity of M. hyorhinis and the conversion of dThd, FdUrd, 5′DFUR and TFT to thymine, 5FU, 5FU or TF-thymine respectively were measured by high-pressure liquid chromatography (HPLC) analysis. MCF-7 and MCF-7/HYOR cells were seeded at a density of 20,000 cells/cm^2 in DMEM with 10% FBS. Four days later, the medium was collected and cleared by centrifugation at 1,400 rpm. For some experiments, the medium of MCF-7/HYOR cells was filtered using a 0.1 μm micro filter (Acrodisc syringe filter, PALL Corporation, East Hills, N.Y.) to remove the mycoplasmas from the medium. 600 μl of the medium was incubated with 200 μM of substrate (dThd, 5′DFUR, TFT or FdUrd) at 37° C. in the presence or absence of 10 μM TPi. […] Next, the samples were rapidly cooled on ice, exposed for 20 min to 200 μl ice-cold methanol and cleared by centrifugation at 15,000 rpm for 15 minutes. As a positive control, an enzyme activity assay with E. coli TP (Sigma) was performed. For this reaction, 0.025 U of TP were incubated with 200 μM of substrate in TP-buffer (10 mM Tris-HCl, pH 7.6, 1 mM EDTA, 2 mM potassium phosphate and 150 mM NaCl) in a total volume of 600 μl. Aliquots of 100 μl were withdrawn from the reaction mixture at several time points and treated as described above. The nucleosides were separated from their nucleobases on a reversed-phase RP-8 column (Merck, Darmstadt, Germany) and quantified by HPLC analysis (Aliance 2690, Waters, Milford, Mass.). The separation was performed by a linear gradient from 100% buffer B (50 mM NaH2PO4 and 5 mM heptane sulfonic acid, pH 3.2), to 20% buffer B and 80% acetonitrile. […] UV-based detection of all nucleosides was performed at 267 nm.

MCF-7/HYOR cells = experiment: Tumor cell proliferation assay, M. hyorhinis-infected MCF-7 cells; type: cell-based, human; settings: for Ratio (1)/(2) MCF-7/HYOR: IC50 in the absence of TPi to IC50 in the presence of TPi
Experimental: Mycoplasma hyorhinis (ATCC 17981) was obtained from the American Type Culture Collection (ATCC, Manassas, Va.). The freeze-dried bacteria were reconstituted by adding 1 ml of DMEM. […] The co-culture of MCF-7 cells and M. hyorhinis was maintained under the same conditions as the uninfected MCF-7 cells. […] The cells were incubated for another 4 days, trypsinized and counted by a Coulter counter (Analis, Suarlée, Belgium).

MCF-7 cells = experiment: Tumor cell proliferation assay, uninfected MCF-7 cells; type: cell-based, human; settings: for IC50: uninfected MCF-7; for Ratio (1)/(2) MCF-7: IC50 in the absence of TPi to IC50 in the presence of TPi

Row | SMILES | Conversion in the medium of uninfected MCF-7 cells [1] | IC50 (MCF-7/HYOR cells; Homo sapiens, MCF7, read-out: IC50 MCF-7/HYOR +TPi (10 μM)) [nM] | IC50 (MCF-7/HYOR cells; Homo sapiens, MCF7, read-out: IC50 MCF-7/HYOR As such) [nM] | IC50 (MCF-7/HYOR cells; Homo sapiens, MCF7, plasmocin 25 μg/ml, 1 day pretreatment, read-out: IC50 MCF-7/HYOR +plasmocin (25 μg/ml) 1 day prior to addition of test compounds) [nM] | IC50 (MCF-7/HYOR cells; Homo sapiens, MCF7, plasmocin 25 μg/ml, 3 days pretreatment, read-out: IC50 MCF-7/HYOR +plasmocin (25 μg/ml) 3 days prior to addition of test compounds) [nM] | Ratio (1)/(2) MCF-7/HYOR (MCF-7/HYOR cells) | IC50 (MCF-7 cells; Homo sapiens, MCF7, 96 h, no TPi, 4 days, read-out: IC50 MCF-7 As such) [nM] | IC50 (MCF-7 cells; Homo sapiens, MCF7, with 10 μM TPi, read-out: IC50 MCF-7 +TPi (10 μM)) [nM] | Ratio (1)/(2) MCF-7 (MCF-7 cells) | IC50 (MCF-7/HYOR cells; M. hyorhinis-infected MCF-7, no TPi, no plasmocin, read-out: IC50 MCF-7/HYOR As such) [nM] | IC50 (MCF-7/HYOR cells; M. hyorhinis-infected MCF-7, with 10 μM TPi, read-out: IC50 MCF-7/HYOR +TPi (10 μM)) [nM] | IC50 (MCF-7/HYOR cells; plasmocin 25 μg/ml, 1 day pretreatment, read-out: IC50 MCF-7/HYOR +plasmocin (25 μg/ml) 1 day prior to addition of test compounds) [nM] | IC50 (MCF-7/HYOR cells; plasmocin 25 μg/ml, 3 days pretreatment, read-out: IC50 MCF-7/HYOR +plasmocin (25 μg/ml) 3 days prior to addition of test compounds) [nM] | IC50 (MCF-7 cells; no TPi, 4 days, read-out: IC50 MCF-7 As such) [nM] | IC50 (MCF-7 cells; with 10 μM TPi, read-out: IC50 MCF-7 +TPi (10 μM)) [nM]
1 | O=c1[nH]c(=O)n([C@H]2C[C@H](O)[C@@H](CO)O2)cc1F [FdUrd, 5-fluoro-2′-deoxyuridine] | no conversion | 3 ± 1 | 420 ± 180 | 18 ± 2.2 | 3 ± 1 | 140 | 3 ± 2 | 3 ± 2 | 1.0 | – | – | – | – | – | –
2 | O=c1[nH]c(=O)n([C@H]2C[C@H](O)[C@@H](CO)O2)cc1C(F)(F)F [TFT, 5-trifluorothymidine] | no conversion | – | – | – | – | 33 | – | – | 1.8 | 6000 ± 3190 | 180 ± 70 | 450 ± 90 | 190 ± 60 | 390 ± 120 | 210 ± 110
